Marks after values point to notes of the source that are not given here.
Tests used:
E. coli = test: Microorganism count in emulsions diluted to 2% (Example 20, Table 2); type: cell-based; conditions: emulsion diluted to 2% with PBS pH=7.00, +37°C
[1] = tested on: Staphylococcus epidermidis 61540-51; test: Microorganism count in 2% solutions of sodium salts (Example 19); type: cell-based; conditions: 2% solution, pH about 7, +37°C
Experimental: (§1) Staphylococcus epidermidis 61540-51 and Escherichia coli ATTC 8739 were each added to a respective solution in a concentration of about 3000-10 000/ml. These samples were then incubated at +37°C for 20 hours. A microorganism count was carried out after 2 and 20 hours, in a manner described in microbiological literature. Parallel with the aforesaid tests, a control was run in pure phosphate buffer and in Tryptone soya broth (TSB) with additions of Staphylococcus epidermidis 61540-51 and Escherichia coli ATTC 8739 respectively, to ascertain the viability of the microorganisms to survive, i.e. the ability of the microorganisms to grow under the ideal conditions provided. After 2 hours, the number of organisms/ml of type Staphylococcus epidermidis in the phosphate solution was 4300 and after 20 hours 1. Growth could be established in TSB after 20 hours. […] This was also the case with the sodium salt of 2 percent 5-methyl-3-oxo-hexanoic acid ethyl ester. After 2 hours, the microorganism count of Escherichia coli in the phosphate solution was 3400, and after 20 hours 7400. Growth was established in TSB after 20 hours. In the solution containing 2% sodium salt of 4-methyl-3-oxo-pentanoic acid ethyl ester, the organism count was 2000 after 2 hours and 0 after 20 hours. With respect to the sodium salt of 5-methyl-3-oxo-hexanoic acid ethyl ester, the organism count was 44 after 2 hours and 0 after 20 hours.

[2] = tested on: Escherichia coli ATTC 8739; test: as above; type: cell-based; conditions: 2% solution, pH about 7, +37°C
Experimental: as §1

[3] = Unspecified toxicity, intravenous injection in mice; type: in vivo; conditions: Example 22: 37 mg per mouse i.v.
Experimental: Unspecified toxicity was tested on four mice by first weighing the animals, and then injecting the animals intravenously with 0.5 ml of an emulsion of 4-methyl-3-oxo-pentanoic acid having a concentration of 50 mg/ml for 10 minutes. Each mouse received a dosage of 25 mg. The emulsion was prepared aseptically, by emulsifying sterile-filtered ester with a sterilized dispersion of egg-yolk phospholipids. […] The increase in weight of the animals was normal during the observation period (weight increase: X=4.5 g, S.D. 0.5).
The unspecific toxicity was tested on 5 mice by first weighing the animals, and then injecting intravenously 0.5 ml of an emulsion of 4-methy-3-oxo-pentanoic acid ethyl ester having a concentration of 5 mg/ml for 15 seconds. The emulsion was aseptically prepared, by emulsifying sterile-filtered ester with a sterilized dispersion of egg-yolk phospholipids. […] Each mouse received a total dosage of 2.5 mg.
Unspecified toxicity was tested on four mice by first weighing the animals, and then injecting intravenously 0.2 ml of an emulsion of 4-methyl-3-oxo-pentanoic acid ethyl ester having a concentration of 33 mg/ml for 30 seconds. Each mouse received a dosage of 6.7 mg. The emulsion was prepared aseptically, by emulsifying sterile-filtered ester with a sterilized dispersion of egg-yolk phospholipids. […]

[4] = after 2 hours, inoculum about 3000-10 000/ml

CCOC(=O)C(C)=O [Ethyl-pyruvate]
number of microorganisms (E. coli; 0 hr): 0* | number of microorganisms (E. coli; 2 hrs): 0 | number of microorganisms (E. coli; 20 hrs): 0

CCOC(=O)CC(=O)CC(C)C.[Na] [sodium salt of 5-methyl-3-oxo-hexanoic acid ethyl ester]
number of organisms [1, 4]: No organisms were found | number of organisms ([1]; after 20 hours): No organisms were found | organism count [2, 4]: 44 | organism count ([2]; after 20 hours): 0 | time after completing the injection until return to normal [3]: 1 min | weight development over the following 7 days [3]: normal weight development

CCOC(=O)CC(=O)C(C)C.[Na] [sodium salt of 4-methyl-3-oxo-pentanoic acid ethyl ester]
number of organisms [1, 4]: No organisms were found | number of organisms ([1]; after 20 hours): No organisms were found | organism count [2, 4]: 2000 | organism count ([2]; after 20 hours): 0

CCOC(=O)C(=O)C(C)C [Ethyl-3-methyl-2-oxo-butyrate]
number of microorganisms (E. coli; 0 hr): 0* | number of microorganisms (E. coli; 2 hrs): 0 | number of microorganisms (E. coli; 20 hrs): 0

From patent publication EP0366632A1, “Alternative energy substrates” (priority 1988, dated 1990)
